{"source": "paper PMC12589732", "about": "“Chemical composition and biological effects of Lavandula angustifolia Mill., essential oils” (AMB Express, 2025)", "molecular_target": "T1, Tyrosinase", "T1 construct": "gene PPO3", "experiment": "L-DOPA oxidation, […] nm", "format": "biochemical", "conditions": "substrate L-DOPA 5 mM stock; 50 mM phosphate pH 6.5; 37 °C; 10 min preincubation"}
{"smiles": "O=c1c(O)c(-c2ccc(O)c(O)c2)oc2cc(O)cc(O)c12", "note": "[Quercetin]", "values": [{"measurement": "Dermatoprotective", "value": "242.99 ± 2.67", "unit": "µg/mL"}]}
